Reference: US20240269139A1, “COMPOUNDS FOR TARGETED PROTEIN DEGRADATION OF KINASES” (DANA-FARBER CANCER INSTITUTE, INC., priority 2020, published 2024)
Read-outs that look alike come from different tables or passages of the source.

Tests used:
[1] = target: protein kinases (human kinome) (Homo sapiens, UniProt Q5S007); format: cell-based; conditions: for logFC: LRRK2 (Q5S007)
GCK = target: T1, GCK (Homo sapiens, UniProt Q12851); test: KiNativ live cell profiling, GCK; format: cell-based, H. sapiens; conditions: MOLT-4 CRBN−/− cells, 1 μM, 5 h
T1 construct: host or cells: CRBN-/- MOLT-4
T1 sequence (Q12851 1-820): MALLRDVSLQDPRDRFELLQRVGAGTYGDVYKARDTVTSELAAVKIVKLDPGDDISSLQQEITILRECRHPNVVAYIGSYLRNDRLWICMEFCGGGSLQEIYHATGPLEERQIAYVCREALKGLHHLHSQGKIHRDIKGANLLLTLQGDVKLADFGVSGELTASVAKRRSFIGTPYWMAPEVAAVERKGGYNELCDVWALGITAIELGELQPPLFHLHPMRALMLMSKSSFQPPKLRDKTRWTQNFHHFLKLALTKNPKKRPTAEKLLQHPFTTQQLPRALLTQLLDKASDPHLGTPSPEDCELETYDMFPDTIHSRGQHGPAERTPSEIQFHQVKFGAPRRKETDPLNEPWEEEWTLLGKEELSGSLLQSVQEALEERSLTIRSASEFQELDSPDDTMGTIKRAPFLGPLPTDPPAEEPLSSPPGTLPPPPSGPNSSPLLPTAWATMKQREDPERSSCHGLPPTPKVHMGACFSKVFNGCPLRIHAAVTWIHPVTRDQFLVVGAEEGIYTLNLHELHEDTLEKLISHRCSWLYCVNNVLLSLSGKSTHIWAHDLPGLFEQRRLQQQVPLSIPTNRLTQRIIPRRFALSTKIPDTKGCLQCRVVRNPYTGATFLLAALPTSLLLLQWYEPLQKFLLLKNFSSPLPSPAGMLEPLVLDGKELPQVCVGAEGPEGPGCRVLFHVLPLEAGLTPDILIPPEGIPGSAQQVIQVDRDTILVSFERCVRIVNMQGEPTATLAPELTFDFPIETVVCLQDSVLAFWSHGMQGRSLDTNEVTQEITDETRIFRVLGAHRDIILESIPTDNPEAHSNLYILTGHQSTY
Procedure: One of the key features of degraders is their potential for a sub-stoichiometric mode of action (Paiva and Crews, Curr Opin Chem Biol 50:111-119 (2019)). […] While this has been confirmed in a limited number of individual studies, the generalizability of this hypothesis was tested across the kinome. […] The focus of this test was to establish whether cellular target engagement (target occupancy) correlates with degrader efficacy. […] KiNativ™ is an activity based chemoproteomic assay, which measures the ability of a small molecule of interest to block the binding of a covalent ATP-mimetic probe. […] Furthermore, the proportion of degraded kinases with detectable binding varied dramatically from compound to compound, and was unrelated to cellular permeability (FIG. 3F).
CRBN^−/− MOLT-4 cells were plated in fresh media (RPMI-1640+10% FBS) in 15 cm plates and treated for 5 hours with candidate compounds. To harvest cells, plates were harvested using detachment using CellStripper™ detachment solution (Corning®) and washed 2× with cold phosphate-buffered saline (abbreviated PBS), followed by centrifugation and snap-freezing of cell pellets in liquid nitrogen. The remainder of the KiNativ® profiling experiment was performed by ActivX® Biosciences (La Jolla. CA).

[2] = target: protein kinases (human kinome) (Homo sapiens, UniProt P19525); format: cell-based; conditions: for logFC: EIF2AK2 (P19525)
[3] = target: T2, extended human kinome (kinase-like proteins) (Homo sapiens, UniProt Q9UHH9); test: Whole cell quantitative proteomics: extended kinome hits; conditions: Accession Q9UHH9
T2 sequence (Q9UHH9 1-426): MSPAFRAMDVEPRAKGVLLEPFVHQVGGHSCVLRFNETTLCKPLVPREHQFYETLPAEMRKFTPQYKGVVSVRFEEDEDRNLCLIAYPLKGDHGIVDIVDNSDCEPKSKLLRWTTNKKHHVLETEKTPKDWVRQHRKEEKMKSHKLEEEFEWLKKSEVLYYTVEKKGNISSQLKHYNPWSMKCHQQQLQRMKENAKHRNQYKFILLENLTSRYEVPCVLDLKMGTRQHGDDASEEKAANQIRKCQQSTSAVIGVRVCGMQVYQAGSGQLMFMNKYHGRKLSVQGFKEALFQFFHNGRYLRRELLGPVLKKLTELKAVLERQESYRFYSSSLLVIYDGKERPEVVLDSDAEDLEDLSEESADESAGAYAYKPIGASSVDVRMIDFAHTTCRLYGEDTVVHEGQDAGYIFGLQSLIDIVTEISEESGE

[4] = target: protein kinases (human kinome) (Homo sapiens, UniProt P36894); format: cell-based; conditions: for logFC: BMPR1A (P36894)
[5] = target: protein kinases (human kinome) (Homo sapiens, UniProt O00311); format: cell-based; conditions: for logFC: CDC7 (O00311-1)
[6] = target: protein kinases (human kinome) (Homo sapiens, UniProt Q9Y243); format: cell-based; conditions: AKT3 (Q9Y243-1)
Chain of protein kinases (human kinome) (Homo sapiens, UniProt Q9Y243) (Q9Y243 whole entry): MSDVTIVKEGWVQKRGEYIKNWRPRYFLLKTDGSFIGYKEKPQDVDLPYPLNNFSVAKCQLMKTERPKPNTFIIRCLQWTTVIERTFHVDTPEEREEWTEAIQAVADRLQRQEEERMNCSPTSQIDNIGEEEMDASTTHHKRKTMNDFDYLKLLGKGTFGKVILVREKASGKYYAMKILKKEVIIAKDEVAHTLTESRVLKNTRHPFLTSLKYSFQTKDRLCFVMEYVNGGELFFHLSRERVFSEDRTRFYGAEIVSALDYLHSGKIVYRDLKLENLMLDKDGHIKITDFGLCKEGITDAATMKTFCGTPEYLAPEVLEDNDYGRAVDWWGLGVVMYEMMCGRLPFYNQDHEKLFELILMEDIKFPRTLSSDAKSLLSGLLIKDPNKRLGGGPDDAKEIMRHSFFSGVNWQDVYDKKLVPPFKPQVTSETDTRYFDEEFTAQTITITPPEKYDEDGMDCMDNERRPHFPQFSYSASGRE

Chain of protein kinases (human kinome) (Homo sapiens, UniProt P36894) (P36894 24-532): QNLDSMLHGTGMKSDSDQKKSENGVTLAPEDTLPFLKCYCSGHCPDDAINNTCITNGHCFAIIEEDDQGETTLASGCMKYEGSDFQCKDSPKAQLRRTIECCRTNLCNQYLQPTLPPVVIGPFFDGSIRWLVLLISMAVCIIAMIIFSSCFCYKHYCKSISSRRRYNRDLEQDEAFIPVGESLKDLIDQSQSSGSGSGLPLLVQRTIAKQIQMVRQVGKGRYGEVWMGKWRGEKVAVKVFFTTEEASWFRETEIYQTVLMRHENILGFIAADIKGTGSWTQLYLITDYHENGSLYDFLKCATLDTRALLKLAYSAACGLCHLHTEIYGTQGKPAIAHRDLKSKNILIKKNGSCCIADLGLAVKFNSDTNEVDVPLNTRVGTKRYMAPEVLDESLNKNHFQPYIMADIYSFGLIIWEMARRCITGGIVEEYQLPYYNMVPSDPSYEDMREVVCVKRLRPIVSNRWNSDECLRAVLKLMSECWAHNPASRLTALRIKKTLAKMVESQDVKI
Chain of protein kinases (human kinome) (Homo sapiens, UniProt Q5S007) (Q5S007 whole entry): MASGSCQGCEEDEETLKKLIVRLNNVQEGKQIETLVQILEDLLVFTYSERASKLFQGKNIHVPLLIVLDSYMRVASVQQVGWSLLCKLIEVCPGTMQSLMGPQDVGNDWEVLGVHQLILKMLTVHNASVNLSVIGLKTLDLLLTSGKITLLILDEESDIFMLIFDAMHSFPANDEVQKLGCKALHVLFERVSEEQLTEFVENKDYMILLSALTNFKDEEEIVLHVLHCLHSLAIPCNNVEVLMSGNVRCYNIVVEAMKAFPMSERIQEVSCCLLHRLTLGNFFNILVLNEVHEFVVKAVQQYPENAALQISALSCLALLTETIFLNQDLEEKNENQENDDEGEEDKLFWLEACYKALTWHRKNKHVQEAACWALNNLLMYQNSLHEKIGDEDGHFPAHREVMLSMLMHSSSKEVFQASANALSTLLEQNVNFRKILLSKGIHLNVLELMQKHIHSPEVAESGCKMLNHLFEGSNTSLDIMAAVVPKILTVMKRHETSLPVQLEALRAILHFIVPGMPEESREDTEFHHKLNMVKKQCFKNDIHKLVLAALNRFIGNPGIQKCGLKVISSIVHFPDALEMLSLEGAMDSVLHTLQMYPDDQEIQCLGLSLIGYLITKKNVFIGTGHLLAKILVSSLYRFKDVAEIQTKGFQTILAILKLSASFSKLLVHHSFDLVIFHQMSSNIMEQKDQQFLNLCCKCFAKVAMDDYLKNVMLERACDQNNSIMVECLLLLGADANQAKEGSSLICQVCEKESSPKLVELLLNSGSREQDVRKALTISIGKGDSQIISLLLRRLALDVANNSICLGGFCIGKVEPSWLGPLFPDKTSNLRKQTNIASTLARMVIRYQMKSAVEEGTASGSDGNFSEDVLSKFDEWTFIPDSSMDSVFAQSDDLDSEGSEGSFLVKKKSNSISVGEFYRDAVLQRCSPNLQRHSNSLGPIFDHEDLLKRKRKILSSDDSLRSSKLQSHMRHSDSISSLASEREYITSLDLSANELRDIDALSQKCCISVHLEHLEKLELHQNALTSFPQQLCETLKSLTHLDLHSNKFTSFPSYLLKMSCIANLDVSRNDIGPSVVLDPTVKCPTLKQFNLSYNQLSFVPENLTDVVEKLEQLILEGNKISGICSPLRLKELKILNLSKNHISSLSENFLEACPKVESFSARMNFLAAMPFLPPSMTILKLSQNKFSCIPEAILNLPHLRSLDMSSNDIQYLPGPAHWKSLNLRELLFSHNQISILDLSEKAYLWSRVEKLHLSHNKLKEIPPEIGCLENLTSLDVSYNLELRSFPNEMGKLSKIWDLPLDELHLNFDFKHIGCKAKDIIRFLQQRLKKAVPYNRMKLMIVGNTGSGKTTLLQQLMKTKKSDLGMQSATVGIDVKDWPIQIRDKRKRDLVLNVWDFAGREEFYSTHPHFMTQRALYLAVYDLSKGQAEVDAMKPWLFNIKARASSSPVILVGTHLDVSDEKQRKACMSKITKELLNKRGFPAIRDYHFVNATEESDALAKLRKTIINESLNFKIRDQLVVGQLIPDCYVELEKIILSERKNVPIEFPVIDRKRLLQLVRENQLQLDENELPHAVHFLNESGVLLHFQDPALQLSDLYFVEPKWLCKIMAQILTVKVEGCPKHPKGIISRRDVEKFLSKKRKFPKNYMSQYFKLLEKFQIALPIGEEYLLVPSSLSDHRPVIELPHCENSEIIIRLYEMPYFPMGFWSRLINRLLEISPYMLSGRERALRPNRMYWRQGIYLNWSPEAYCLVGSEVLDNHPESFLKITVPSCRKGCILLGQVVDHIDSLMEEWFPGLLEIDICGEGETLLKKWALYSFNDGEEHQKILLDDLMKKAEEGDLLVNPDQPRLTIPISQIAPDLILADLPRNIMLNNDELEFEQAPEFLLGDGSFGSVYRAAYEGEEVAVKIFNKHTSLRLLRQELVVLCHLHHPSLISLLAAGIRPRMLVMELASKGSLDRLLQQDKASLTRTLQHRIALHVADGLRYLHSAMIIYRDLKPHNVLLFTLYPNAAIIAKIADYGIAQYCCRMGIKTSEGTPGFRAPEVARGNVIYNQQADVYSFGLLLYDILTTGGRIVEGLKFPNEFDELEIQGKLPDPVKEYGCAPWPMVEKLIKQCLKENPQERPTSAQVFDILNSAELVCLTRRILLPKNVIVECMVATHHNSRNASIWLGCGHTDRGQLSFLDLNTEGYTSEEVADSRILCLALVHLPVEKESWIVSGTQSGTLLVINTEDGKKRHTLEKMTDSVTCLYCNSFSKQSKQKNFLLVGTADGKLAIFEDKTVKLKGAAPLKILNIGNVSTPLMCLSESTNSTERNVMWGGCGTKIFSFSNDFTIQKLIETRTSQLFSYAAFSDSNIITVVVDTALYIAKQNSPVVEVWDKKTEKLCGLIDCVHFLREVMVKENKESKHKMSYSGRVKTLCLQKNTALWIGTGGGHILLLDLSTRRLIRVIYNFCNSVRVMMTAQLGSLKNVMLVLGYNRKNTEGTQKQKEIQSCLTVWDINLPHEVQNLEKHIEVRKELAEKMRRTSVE
Chain of protein kinases (human kinome) (Homo sapiens, UniProt O00311) (O00311 whole entry): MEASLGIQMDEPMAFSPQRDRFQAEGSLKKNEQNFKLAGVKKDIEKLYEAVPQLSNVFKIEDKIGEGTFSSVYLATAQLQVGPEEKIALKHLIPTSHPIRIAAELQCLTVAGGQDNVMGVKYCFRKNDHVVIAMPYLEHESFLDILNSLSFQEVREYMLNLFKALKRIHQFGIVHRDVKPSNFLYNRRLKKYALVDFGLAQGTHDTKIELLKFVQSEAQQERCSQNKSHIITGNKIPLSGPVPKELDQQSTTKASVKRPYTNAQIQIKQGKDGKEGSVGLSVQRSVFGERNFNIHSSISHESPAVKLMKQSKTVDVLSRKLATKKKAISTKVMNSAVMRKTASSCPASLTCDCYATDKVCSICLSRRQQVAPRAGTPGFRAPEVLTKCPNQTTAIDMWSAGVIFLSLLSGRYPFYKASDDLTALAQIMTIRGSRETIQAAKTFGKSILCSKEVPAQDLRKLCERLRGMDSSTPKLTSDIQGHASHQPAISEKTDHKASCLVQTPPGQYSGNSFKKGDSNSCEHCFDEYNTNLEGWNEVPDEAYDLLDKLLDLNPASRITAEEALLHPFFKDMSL
Chain of protein kinases (human kinome) (Homo sapiens, UniProt P19525) (P19525 whole entry): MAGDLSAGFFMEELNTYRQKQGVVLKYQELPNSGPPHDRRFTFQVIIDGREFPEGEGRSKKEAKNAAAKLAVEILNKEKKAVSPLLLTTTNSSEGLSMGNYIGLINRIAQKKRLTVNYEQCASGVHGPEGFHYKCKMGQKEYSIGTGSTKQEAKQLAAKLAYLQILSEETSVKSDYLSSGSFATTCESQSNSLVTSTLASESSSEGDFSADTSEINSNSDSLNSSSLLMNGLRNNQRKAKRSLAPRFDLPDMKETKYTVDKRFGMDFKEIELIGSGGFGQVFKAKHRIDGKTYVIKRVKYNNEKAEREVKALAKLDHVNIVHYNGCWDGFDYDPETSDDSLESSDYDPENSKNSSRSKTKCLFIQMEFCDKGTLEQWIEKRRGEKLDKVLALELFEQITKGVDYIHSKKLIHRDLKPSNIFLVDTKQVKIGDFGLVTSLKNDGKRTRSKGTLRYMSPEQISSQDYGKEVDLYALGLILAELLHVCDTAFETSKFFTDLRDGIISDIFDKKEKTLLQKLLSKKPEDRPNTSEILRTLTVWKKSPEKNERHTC

## Cc1ccc(NC(=O)c2cccc(C(F)(F)F)c2)cc1N1Cc2cnc(Nc3ccc(N4CCN(Cc5cn(CCCCCOc6cccc7c6C(=O)N(C6CCC(=O)NC6=O)C7=O)nn5)CC4)nc3)nc2N(C)C1=O (stereo not drawn) [DB0646, N-(3-(7-((6-(4-((1-(5-((2-(2,6-Dioxopiperidin-3-yl)-1,3-dioxoisoindolin-4-yl)oxy)pentyl)-1H-1,2,3-triazol-4-yl)methyl)piperazin-1-v)pyridin-3-yl)amino)-1-methyl-2-oxo-1,4-dihydropyrimido[4,5-d]pyrimidin-3(2H)-yl)-4-methylphenyl)-3-(trifluoromethyl)benzamide]
[1]; Experiment wp160, 2 hr
  logFC of LRRK2 (Q5S007): −1.181
[1]; experiment wp160, 2 hr
  logFC: −1.181
[1]; experiment wp160, 4 hr
  logFC: −1.307
  logFC of LRRK2 (Q5S007): −1.307
[1]; experiment wp160, 1 hr
  logFC: −1.165
  logFC of LRRK2 (Q5S007): −1.165
[1]; experiment wp160, 8 hr
  logFC: −1.747
  logFC of LRRK2 (Q5S007): −1.747
GCK
  GCK inhibition of probe binding (KiNativ): 58 % I

## CS(=O)(=O)Nc1cccc(-c2csc3cnc(Nc4ccc(N5CCN(CCCCCOc6cccc7c6C(=O)N(C6CCC(=O)NC6=O)C7=O)CC5)cc4)nc23)c1 (stereo not drawn) [DB0614, N-(3-(2-((4-(4-(5-((2-(2,6-Dioxopiperidin-3-yl)-1,3-dioxoisoindolin-4-yl)oxy)pentyl)piperazin-1-yl)phenyl)amino)thieno[3,2-d]pyrimidin-7-yl)phenyl)methanesulfonamide]
[2]; experiment wp117
  logFC: −0.3221
[2]; Experiment wp117
  logFC of EIF2AK2 (P19525): −0.3221

## Cc1ccc(C(=O)Nc2ccc(CN3CCN(CCCOCCOCCOCCNC(=O)COc4cccc5c4C(=O)N(C4CCC(=O)NC4=O)C5=O)CC3)c(C(F)(F)F)c2)cc1C#Cc1cnc2cccnn12 (stereo not drawn) [SB1-G-187, N-(4-((4-(1-((2-(2,6-dioxopiperidin-3-yl)-1,3-dioxoisoindolin-4-yl)oxy)-2-oxo-6,9,12-trioxa-3-azapentadecan-15-yl)piperazin-1-yl)methyl)-3 (trifluoromethyl)phenyl)-3-(imidazo[1,2-b]pyridazin-3-ylethynyl)-4-methylbenzamide]
GCK
  GCK inhibition of probe binding (KiNativ): 94 % I

## CC(C)S(=O)(=O)c1ccccc1Nc1nc(Nc2ccc(N3CCN(CCOCCOCCNC(=O)CNc4cccc5c4C(=O)N(C4CCC(=O)NC4=O)C5=O)CC3)cc2)ncc1Cl (stereo not drawn) [TL12.186]
[3]; experiment wp137
  logFC IP6K2: −0.7538
[4]; experiment wp131
  logFC: −0.8334
  logFC of BMPR1A (P36894): −0.8334
[4]; experiment wp137
  logFC: −0.6566
  logFC of BMPR1A (P36894): −0.6566

## Cc1ncsc1-c1ccc([C@H](C)NC(=O)[C@@H]2C[C@@H](O)CN2C(=O)[C@@H](NC(=O)CCOCCOCCN2CCN(c3ccc(Nc4ncc(Cl)c(Nc5ccccc5S(=O)(=O)C(C)C)n4)cc3)CC2)C(C)(C)C)cc1 [FMF.06.098.1]
[5]; experiment wp108
  logFC: −0.3323
[5]; experiment wp131
  logFC: −0.4109
  logFC of CDC7 (O00311-1): −0.4109
[5]; Experiment wp108
  logFC of CDC7 (O00311-1): −0.3323

## C[C@@H]1C[C@@H](O)c2ncnc(N3CCN(C(=O)[C@H](CNCCCCCCCCCCc4cccc5c4C(=O)N(C4CCC(=O)NC4=O)C5=O)c4ccc(Cl)cc4)CC3)c21 (stereo partly drawn) [INY.03.041.01]
[3]; experiment wp118
  logFC IP6K2: −0.662
[3]; experiment wp135, 4 hr
  logFC IP6K2: −0.3251
[6]; experiment wp118
  logFC: −2.769
[6]; experiment wp118, direction down
  logFC: −2.769
[6]; experiment wp135, 4 hr
  logFC: −1.925
[6]; experiment wp135, 4 hr, direction down
  logFC: −1.925

## CC(C)S(=O)(=O)c1ccccc1Nc1nc(Nc2ccc(N3CCN(CCOCCNC(=O)CNc4cccc5c4C(=O)N(C4CCC(=O)NC4=O)C5=O)CC3)cc2)ncc1Cl (stereo not drawn) [SK-3-91]
GCK
  GCK inhibition of probe binding (KiNativ): 50 % I

## CC(C)(C)c1nc(-c2cccc(NS(=O)(=O)c3c(F)cccc3F)c2F)c(-c2ccnc(NCCOCCNC(=O)CCOCCOCCNc3cccc4c3C(=O)N(C3CCC(=O)NC3=O)C4=O)n2)s1 (stereo not drawn) [DD.03.106]
[2]; experiment wp147, 2 uM
  logFC: −0.3545
[2]; experiment wp147, 4 uM
  logFC: −0.4042
[2]; Experiment wp147, 2 uM
  logFC of EIF2AK2 (P19525): −0.3545
[2]; Experiment wp147, 4 uM
  logFC of EIF2AK2 (P19525): −0.4042

## CC(C)S(=O)(=O)c1ccccc1Nc1nc(Nc2ccc(N3CCN(CCOCCNC(=O)CNc4cccc5c4C(=O)N(C4CCC(=O)NC4=O)C5=O)CC3)cc2)ncc1Cl (stereo not drawn) [SK.3.91]
[3]; experiment wp016, 1 uM
  logFC IP6K2: −0.9368
[3]; experiment wp107
  logFC IP6K2: −1.472
[3]; experiment wp133, 1 hr
  logFC IP6K2: −0.4547
[3]; experiment wp133, 2 hr
  logFC IP6K2: −0.6461
[3]; experiment wp133, 4 hr
  logFC IP6K2: −0.9692
[3]; experiment wp160, 2 hr
  logFC IP6K2: −0.4937
[3]; experiment wp160, 4 hr
  logFC IP6K2: −0.6281
[6]; experiment wp105
  logFC: −0.7783
[6]; experiment wp105, direction down
  logFC: −0.7783
[5]; experiment wp133, 4 hr
  logFC: −0.3652
  logFC of CDC7 (O00311-1): −0.3652
[4]; experiment wp105
  logFC: −0.4077
  logFC of BMPR1A (P36894): −0.4077
[4]; experiment wp107
  logFC: −1.103
[4]; experiment wp133, 4 hr
  logFC: −0.8007
  logFC of BMPR1A (P36894): −0.8007
[4]; Experiment wp107
  logFC of BMPR1A (P36894): −1.103
[1]; experiment wp160, 1 hr
  logFC: −0.8447
  logFC of LRRK2 (Q5S007): −0.8447
